Measurements published in ChEMBL document CHEMBL3132742, “Hydrogen sulfide donors in research and drug development” (2014).

Columns and labels:
[1] = tested on: HT-29; assay: Anticancer activity against human HT-29 cells xenografted in mouse model assessed as suppression of cancer cell growth relative to control; format: functional
[2] = tested on: HT-29; assay: Anticancer activity against human HT-29 cells xenografted in mouse model assessed as reduction in tumor volume relative to control; format: functional

## O=C(CCCO[N+](=O)[O-])Oc1ccccc1C(=O)Oc1ccc(-c2cc(=S)ss2)cc1
[1]
  fold change (FC): 9000
[2]
  inhibition (INH): 85%
